Counter-ions that a name gives are not always drawn.

Holding throughout (assay): Kinase inhibitor library screening, PrestoBlue cell viability, 1 or 10 μM, 72 h
Assay [1] deals with 501Mel-XP cells (Vemurafenib-resistant). As to conditions: for viability at 1 µM / viability at 10 µM: Homo sapiens; for viability at 1 µM: read-out: cell viability, 501Mel XP, 1μΜ; for viability at 10 µM: read-out: cell viability, 501Mel XP, 10μΜ.
Another assay deals with IGR37 cells (parental). As to conditions: for viability at 1 µM / viability at 10 µM: Homo sapiens, IGR-37, 72 h; for viability at 1 µM: read-out: cell viability, IGR37 Parental, 1μΜ; for viability at 10 µM: read-out: cell viability, IGR37 Parental, 10μΜ.
For assay [2], the system named is 501Mel-GP cells (Dabrafenib-resistant). As to conditions: for viability at 1 µM / viability at 10 µM: Homo sapiens; for viability at 1 µM: read-out: cell viability, 501Mel GP, 1μΜ; for viability at 10 µM: read-out: cell viability, 501Mel GP, 10μΜ.
Assay [3] concerns IGR37-GP cells (Dabrafenib-resistant). As to conditions: for viability at 1 µM / viability at 10 µM: Homo sapiens, IGR-37, 72 h; for viability at 1 µM: read-out: cell viability, IGR37 GP, 1μΜ; for viability at 10 µM: read-out: cell viability, IGR37 GP, 10μΜ.
In assay [4] the test system is A375-GP cells (Dabrafenib-resistant). As to conditions: for viability at 1 µM / viability at 10 µM: Homo sapiens, A-375, 72 h; for viability at 1 µM: read-out: cell viability, A375 GP, 1μΜ; for viability at 10 µM: read-out: cell viability, A375 GP, 10μΜ.
For a further assay, the system named is 501Mel cells (parental). As to conditions: for viability at 1 µM / viability at 10 µM: Homo sapiens; for viability at 1 µM: read-out: cell viability, 501Mel Parental, 1μΜ; for viability at 10 µM: read-out: cell viability, 501Mel Parental, 10μΜ. In a few lines: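 PrestoBlue viability readout after 72 h exposure to each inhibitor at 1 or 10 μM, reported relative to untreated cells as % viability. Lines tested: sensitive parental plus derivatives resistant to Vemurafenib (XP) or Dabrafenib (GP), each run at least in duplicate.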

Another assay has as its system A375 cells (parental). As to conditions: for viability at 1 µM / viability at 10 µM: Homo sapiens, A-375, 72 h; for viability at 1 µM: read-out: cell viability, A375 Parental, 1μΜ; for viability at 10 µM: read-out: cell viability, A375 Parental, 10μΜ.
The subject of assay [5] is A375-XP cells (Vemurafenib-resistant). As to conditions: for viability at 1 µM / viability at 10 µM: Homo sapiens, A-375, 72 h; for viability at 1 µM: read-out: cell viability, A375 XP, 1μΜ; for viability at 10 µM: read-out: cell viability, A375 XP, 10μΜ.
Assay [6] has as its system IGR37-XP cells (Vemurafenib-resistant). The note with it: for viability at 1 µM / viability at 10 µM: Homo sapiens, IGR-37, 72 h; for viability at 1 µM: read-out: cell viability, IGR37 XP, 1μΜ; for viability at 10 µM: read-out: cell viability, IGR37 XP, 10μΜ.

In the case of `COc1cc2nccc(Oc3ccc(NC(=O)NC4CC4)c(Cl)c3)c2cc1C(N)=O` [E7080 (Lenvatinib)], the “cell viability (kinase inhibitor library screening)” value in assay [1] (501Mel XP, 1μΜ, in %) was determined as 98.9; in assay [1] (501Mel XP, 10μΜ, in %) it was 87.0; in the assay on IGR37 cells (parental) (IGR37 Parental, 1μΜ, in %) it was 102.9; with IGR37 cells (parental) (IGR37 Parental, 10μΜ, in %) it was 104.3; in [2] (501Mel GP, 1μΜ, in %), 106.1; in [2] (501Mel GP, 10μΜ, in %) it was 90.9. In addition, the “cell viability (kinase inhibitor library screening)” value came out at 97.5 in assay [3] (IGR37 GP, 1μΜ, in %); 86.5 in [3] (IGR37 GP, 10μΜ, in %); 94.8 in assay [4] (A375 GP, 10μΜ, in %); 106.1 in the assay with 501Mel cells (parental) (501Mel Parental, 1μΜ, in %); 105.7 in the assay with 501Mel cells (parental) (501Mel Parental, 10μΜ, in %); 103.7 in the assay with A375 cells (parental) (A375 Parental, 1μΜ, in %). Also, the “cell viability (kinase inhibitor library screening)” value is given as 95.8 in the assay on A375 cells (parental) (A375 Parental, 10μΜ, in %); 109.2 in [5] (A375 XP, 10μΜ, in %); 97.7 in [6] (IGR37 XP, 1μΜ, in %); 58.8 in assay [6] (IGR37 XP, 10μΜ, in %).
Usually viability stands for the share of living cells, or the viability signal relative to a control. As for `Cc1cc(Nc2cc(N3CCN(C)CC3)nc(/C=C/c3ccccc3)n2)n[nH]1` [ENMD-2076], the viability at 1 µM was determined as 69.3% in assay [1] (72 h); 96.5% in the assay with IGR37 cells (parental); 99.4% in [2] (72 h); 90.4% in [3]; 65.8% in [4]; 97% with 501Mel cells (parental) (72 h). Also, the values for the viability at 1 µM (in the assay on A375 cells (parental); in [5]; in assay [6]) were 67.6%, 79.9% and 89.3%, respectively. In addition, the viability at 10 µM in assay [1] (72 h) was 1.1%; in the assay on IGR37 cells (parental), 25.6%; in assay [2] (72 h) it was 25.5%; in assay [3] it was 5.2%; in [4], 20.9%; with 501Mel cells (parental) (72 h), 3.4%. Moreover, the viability at 10 µM came out at 21.2% in the assay on A375 cells (parental), 19.2% in assay [5] and 2.2% in assay [6].
On to `Cn1cc(C2=C(c3cn(C4CCN(Cc5ccccn5)CC4)c4ccccc34)C(=O)NC2=O)c2ccccc21` [Enzastaurin (LY317615)], for which, in assay [1] (501Mel XP, 1μΜ, 72 h, in %), the “Cell viability in kinase inhibitor library screening, 501Mel XP, 1μΜ” value is 85.4. In assay [1] (501Mel XP, 10μΜ, 72 h, in %), the “Cell viability in kinase inhibitor library screening, 501Mel XP, 10μΜ” value turned out to be 48.1. In addition, the “Cell viability in kinase inhibitor library screening, IGR37 Parental, 10μΜ” value in the assay on IGR37 cells (parental) (IGR37 Parental, 10μΜ, 72 h, in %) was 82.6. Further, the “Cell viability in kinase inhibitor library screening, 501Mel GP, 1μΜ” value in assay [2] (501Mel GP, 1μΜ, 72 h, in %) is on record as 92.5. For the same compound, the “Cell viability in kinase inhibitor library screening, 501Mel GP, 10μΜ” value in [2] (501Mel GP, 10μΜ, 72 h, in %) is 54.6. The compound also registered a Cell viability in kinase inhibitor library screening, IGR37 GP, 10μΜ in [3] (IGR37 GP, 10μΜ, 72 h) of 58.7%. The “Cell viability in kinase inhibitor library screening, IGR37 GP, 1μΜ” value in assay [3] (IGR37 GP, 1μΜ, 72 h, in %) turned out to be 100.0. Also, the “Cell viability in kinase inhibitor library screening, A375 GP, 1μΜ” value in [4] (A375 GP, 1μΜ, 72 h) is 97.4. In addition, the “Cell viability in kinase inhibitor library screening, A375 GP, 10μΜ” value in assay [4] (A375 GP, 10μΜ, 72 h) is recorded as 58.1. Moreover, the “Cell viability in kinase inhibitor library screening, 501Mel Parental, 1μΜ” value in the assay on 501Mel cells (parental) (501Mel Parental, 1μΜ, 72 h, in %) is listed as 78.4. Besides, the “Cell viability in kinase inhibitor library screening, 501Mel Parental, 10μΜ” value in the assay with 501Mel cells (parental) (501Mel Parental, 10μΜ, 72 h, in %) is on record as 63.8. For the same compound, the “Cell viability in kinase inhibitor library screening, A375 Parental, 10μΜ” value with A375 cells (parental) (A375 Parental, 10μΜ, 72 h) turned out to be 55.3. Also, the “Cell viability in kinase inhibitor library screening, A375 Parental, 1μΜ” value with A375 cells (parental) (A375 Parental, 1μΜ, 72 h) worked out at 99.1. Also, in [5] (A375 XP, 1μΜ, 72 h), the “Cell viability in kinase inhibitor library screening, A375 XP, 1μΜ” value turned out to be 103.5. The “Cell viability in kinase inhibitor library screening, A375 XP, 10μΜ” value in [5] (A375 XP, 10μΜ, 72 h) came to 66.7. The Cell viability in kinase inhibitor library screening, IGR37 XP, 10μΜ in [6] (IGR37 XP, 10μΜ, 72 h) came to 31.7%. In addition, the “Cell viability in kinase inhibitor library screening, IGR37 XP, 1μΜ” value in assay [6] (IGR37 XP, 1μΜ, 72 h, in %) is on record as 98.3.
On to `C#Cc1cccc(Nc2ncnc3cc(OCCOC)c(OCCOC)cc23)c1` [Erlotinib HCl], for which the viability at 1 µM in assay [1] (72 h) is 86.3%; with IGR37 cells (parental), 95.5%; in [2] (72 h) it was 95%; in [3] it was 93.1%; in [4] it was 96.2%; with 501Mel cells (parental) (72 h), 97.2%. Further, the viability at 1 µM in the assay on A375 cells (parental) was 100%; in assay [5], 100%; in assay [6], 92.4%. The viability at 10 µM in assay [1] (72 h) stood at 38%; with IGR37 cells (parental), 92%; in assay [2] (72 h), 61.2%; in assay [3], 67.5%; in [4], 69.1%; in the assay on 501Mel cells (parental) (72 h), 84.3%. Further, the viability at 10 µM in the assay with A375 cells (parental) was 73.4%; in [5] it was 83.4%; in assay [6], 51.9%.
Regarding `CN1CC[C@H](c2c(O)cc(O)c3c(=O)cc(-c4ccccc4Cl)oc23)[C@H](O)C1` [Flavopiridol hydrochloride], the “cell viability (kinase inhibitor library screening)” value in assay [1] (501Mel XP, 1μΜ, 72 h) amounted to 0.473%; in assay [1] (501Mel XP, 10μΜ, 72 h), 0.3%; with IGR37 cells (parental) (IGR37 Parental, 1μΜ, 72 h) it was 2.2%; in the assay with IGR37 cells (parental) (IGR37 Parental, 10μΜ, 72 h), 2.2%; in [2] (501Mel GP, 1μΜ, 72 h) it was 0.662%; in assay [2] (501Mel GP, 10μΜ, 72 h) it was 0.4%. In addition, the “cell viability (kinase inhibitor library screening)” value in [3] (IGR37 GP, 1μΜ, 72 h) is recorded as 4.5%; in assay [3] (IGR37 GP, 10μΜ, 72 h), 3.8%; in [4] (A375 GP, 1μΜ, 72 h), 4.6%; in [4] (A375 GP, 10μΜ, 72 h), 3.0%; in the assay on 501Mel cells (parental) (501Mel Parental, 1μΜ, 72 h), 1.1%; with 501Mel cells (parental) (501Mel Parental, 10μΜ, 72 h) it was 1.3%. The “cell viability (kinase inhibitor library screening)” value with A375 cells (parental) (A375 Parental, 10μΜ, 72 h) was 7.2%; with A375 cells (parental) (A375 Parental, 1μΜ, 72 h) it was 7.0%; in assay [5] (A375 XP, 1μΜ, 72 h) it was 5.6%; in assay [5] (A375 XP, 10μΜ, 72 h), 5.1%; in assay [6] (IGR37 XP, 1μΜ, 72 h) it was 2.9%; in [6] (IGR37 XP, 10μΜ, 72 h) it was 3.2%.
For the compound `COc1cc2c(Oc3ccc(NC(=O)C4(C(=O)Nc5ccc(F)cc5)CC4)cc3F)ccnc2cc1OCCCN1CCOCC1` [Foretinib (GSK1363089, XL880)], the “cell viability (kinase inhibitor library screening)” value in [1] (501Mel XP, 1μΜ, 72 h) is given as 47.0%; in assay [1] (501Mel XP, 10μΜ, 72 h), -0.9%; in the assay with IGR37 cells (parental) (IGR37 Parental, 1μΜ, 72 h), 85.9%; in the assay on IGR37 cells (parental) (IGR37 Parental, 10μΜ, 72 h), 0.2%; in [2] (501Mel GP, 1μΜ, 72 h), 64.6%; in [2] (501Mel GP, 10μΜ, 72 h), -0.6%. The “cell viability (kinase inhibitor library screening)” value stood at 91.3% in assay [3] (IGR37 GP, 1μΜ, 72 h); 0.8% in assay [3] (IGR37 GP, 10μΜ, 72 h); 67.2% in [4] (A375 GP, 1μΜ, 72 h); 0.464% in assay [4] (A375 GP, 10μΜ, 72 h); 84.1% with 501Mel cells (parental) (501Mel Parental, 1μΜ, 72 h); 0.153% in the assay with 501Mel cells (parental) (501Mel Parental, 10μΜ, 72 h). For the same compound, the “cell viability (kinase inhibitor library screening)” value turned out to be 0.654% in the assay on A375 cells (parental) (A375 Parental, 10μΜ, 72 h); 71.0% in the assay with A375 cells (parental) (A375 Parental, 1μΜ, 72 h); 75.2% in [5] (A375 XP, 1μΜ, 72 h); 0.7% in assay [5] (A375 XP, 10μΜ, 72 h); 81.8% in assay [6] (IGR37 XP, 1μΜ, 72 h); 0.556% in assay [6] (IGR37 XP, 10μΜ, 72 h).

Values taken from publication PMC6364417, “Kinase inhibitor library screening identifies synergistic drug combinations effective in sensitive and resistant melanoma cells” (Journal of Experimental & Clinical Cancer Research : CR, 2019).
